Results on 26 compounds are retold here after patent publication US9518046B2 (Calitor Sciences, LLC, priority 2015, dated 2016).

This data set can be described thus: Pharmacokinetics after intravenous and oral administration in rats. The conditions noted are these: for CL/F / bioavailability: Rats; for CL/F: iv dosing, dose 1 mg/kg (0.5 for Ex. 1, 10, 11, 35; 0.48 for Ex. 24); for AUC(0-t) / half-life / Vd / bioavailability: rat, plasma; for AUC(0-t) / half-life / Vd: iv, 1 mg/kg; for Vd: read-out: Vss; for bioavailability: oral (p.o.) generally 5 or 10 mg/kg versus iv dosing. In kind it is in vivo. The procedure: The LC/MS/MS system used in the analysis consists of an Agilent 1200 Series vacuum degasser, binary pump, well-plate autosampler, thermostatted column compartment, the Agilent G6430 Triple Quadrupole Mass Spectrometer with an electrosprayionization (ESI) source. Quantitative analysis was carried out using MRM mode. The parameters for MRM transitions are in the Table A.
An Agilent XDB-C18, 2.1×30 mm, 3.5 M column was used for the analysis. 5 L of the samples were injected. Analysis condition: The mobile phase was 0.1% formic acid in water (A) and 0.1% formic acid in methanol (B). The flow rate was 0.4 mL/min. And the gradient of Mobile phase was in the Table B.
Alternatively, an Agilent 6330 series LC/MS/MS spectrometer equipped with G1312A binary pumps, a G1367A autosampler and a G1314C UV detector were used in the analysis. An ESI source was used on the LC/MS/MS spectrometer. The analysis was done in positive ion mode as appropriate and the MRM transition for each analyte was optimized using standard solution. A Capcell MP-C18 100×4.6 mm I.D., […] column (Phenomenex, Torrance, Calif., USA) was used during the analysis. The mobile phase was 5 mM ammonia acetate, 0.1% MeOH in water (A): 5 mM ammonia acetate, 0.1% MeOH in acetonitrile (B) (70:30, v/v). The flow rate was 0.6 mL/min. Column was maintained at ambient temperature. 20 μL of the samples were injected.
The compounds disclosed herein are assessed in pharmacokinetic studies in mice, rats, dogs or monkeys. The compounds are administered as a water solution, 2% HPMC+1% TWEEN®80 in water solution, 5% DMSO+5% solutol in saline, 4% MC suspension or capsule. For the intravenous administration, the animals are generally given at 1 or 2 mg/kg dose. For the oral (p.o.) dosing, mice and rats are generally given 5 or 10 mg/kg dose, and dogs and monkeys are generally given 10 mg/kg dose. The blood samples (0.3 mL) are drawn at 0.25, 0.5, 1.0, 2.0, 3.0, 4.0, 6.0, 8.0, 12 and 24 h time points or 0.083, 0.25, 0.5, 1.0, 2.0, 4.0, 6.0, 8.0 and 24 h time points and centrifuged at 3,000 or 4000 rpm for 2 to 10 min. The plasma solutions are collected, stored at −20° C. or −70° C. until analyzed by LC/MS/MS as described above.

`CC[C@H](Nc1ncnc(N)c1-c1noc(C)n1)c1nc2cccc(F)c2c(=O)n1C1CC1` [Ex. 16, (S)-2-(1-((6-amino-5-(5-methyl-1,2,4-oxadiazol-3-yl)pyrimidin-4-yl)amino)-propyl)-3-cyclopropyl-5-fluoroquinazolin-4(3H)-one] gave a CL/F of 68.7 mL/min/kg.
Regarding `CC[C@H](Nc1ncnc(N)c1-c1nc(C)no1)c1nc2cccc(F)c2c(=O)n1C1CC1` [Ex. 23, (S)-2-(1-((6-amino-5-(3-methyl-1,2,4-oxadiazol-5-yl)pyrimidin-4-yl)amino)-propyl)-3-cyclopropyl-5-fluoroquinazolin-4(3H)-one], the CL/F came to 71.3 mL/min/kg.
Same read-out and setting: with `CC[C@H](Nc1ncnc(N)c1-c1ncn(C)n1)c1nc2cccc(F)c2c(=O)n1C1CC1` [Ex. 26, (S)-2-(1-((6-amino-5-(1-methyl-1H-1,2,4-triazol-3-yl)pyrimidin-4-yl)amino)propyl)-3-cyclopropyl-5-fluoroquinazolin-4(3H)-one] the figure was 37 mL/min/kg; with `CC[C@@H](Nc1ncnc(N)c1-c1nc(C)no1)c1nc2cccc(Cl)c2c(=O)n1C1CC1` [Ex. 19, (R)-2-(1-((6-amino-5-(3-methyl-1,2,4-oxadiazol-5-yl)pyrimidin-4-yl)amino)propyl)-5-chloro-3-cyclopropylquinazolin-4(3H)-one], 127 mL/min/kg.
In the case of `CC[C@H](Nc1ncnc(N)c1-c1nc(C(N)=O)n(C)n1)c1nc2cccc(Cl)c2c(=O)n1C1CC1` [Ex. 58, (S)-3-(4-amino-6-((1-(5-chloro-3-cyclopropyl-4-oxo-3,4-dihydroquinazolin-2-yl)propyl)amino)pyrimidin-5-yl)-1-methyl-1H-1,2,4-triazole-5-carboxamide], the CL/F stood at 26.2 mL/min/kg.
`C[C@H](Nc1ncnc(N)c1-c1ncn(C)n1)c1nc2cccc(Cl)c2c(=O)n1C1CC1` [Ex. 44, (S)-2-(1-((6-amino-5-(1-methyl-1H-1,2,4-triazol-3-yl)pyrimidin-4-yl)amino)-ethyl)-5-chloro-3-cyclopropylquinazolin-4(3H)-one]: the CL/F was 73.7 mL/min/kg.
`CC[C@H](Nc1ncnc(N)c1-c1ncn(C)n1)c1nc2cccc(Cl)c2c(=O)n1-c1ccccc1F` (single isomer, unassigned) [Ex. 45] registered a CL/F of 61.8 mL/min/kg.
The compound `CC[C@H](Nc1ncnc(N)c1-c1nc(COC)n(C)n1)c1nc2cccc(Cl)c2c(=O)n1C1CC1` [Ex. 46] yielded an apparent clearance (CL/F) of 55.8 mL/min/kg.
`CC(C)c1noc(-c2c(N)ncnc2N[C@@H](C)c2nc3cccc(Cl)c3c(=O)n2C2CC2)n1` [Ex. 57, (S)-2-(1-((6-amino-5-(3-isopropyl-1,2,4-oxadiazol-5-yl)pyrimidin-4-yl)amino)-ethyl)-5-chloro-3-cyclopropylquinazolin-4(3H)-one] gave a CL/F of 83 mL/min/kg.
For the compound `CC[C@H](Nc1ncnc(N)c1-c1noc(C)n1)c1nc2cccc(C)c2c(=O)n1-c1ccccc1C` (single isomer, unassigned) [Ex. 15], the CL/F worked out at 74.2 mL/min/kg.
Consider `CC[C@H](Nc1ncnc(N)c1-c1ccon1)c1nc2cccc(F)c2c(=O)n1C1CC1` [Ex. 48, (S)-2-(1-((6-amino-5-(isoxazol-3-yl)pyrimidin-4-yl)amino)propyl)-3-cyclopropyl-5-fluoroquinazolin-4(3H)-one], for which the CL/F was 67.3 mL/min/kg.
`CC(C)c1nc(-c2c(N)ncnc2N[C@@H](C)c2nc3cccc(Cl)c3c(=O)n2C2CC2)no1` [Ex. 59, (S)-2-(1-((6-amino-5-(5-isopropyl-1,2,4-oxadiazol-3-yl)pyrimidin-4-yl)amino)ethyl)-5-chloro-3-cyclopropylquinazolin-4(3H)-one]: the CL/F is 73.7 mL/min/kg. The CL/F values of the last two compounds are within 1.5-fold of each other.
The same measure, in the same setting: then `CC[C@H](Nc1ncnc(N)c1-c1nc(C)no1)c1nc2cccc(C)c2c(=O)n1-c1ccccc1` [Ex. 37, (S)-2-(1-((6-amino-5-(3-methyl-1,2,4-oxadiazol-5-yl)pyrimidin-4-yl)amino)-propyl)-5-methyl-3-phenylquinazolin-4(3H)-one], with 67.5 mL/min/kg; and `CC[C@H](Nc1ncnc(N)c1-c1ncnn1C)c1nc2cccc(Cl)c2c(=O)n1C1CC1` [Ex. 9, 2-((1S)-1-((6-amino-5-(1-methyl-1H-1,2,4-triazol-5-yl)pyrimidin-4-yl)amino)-propyl)-5-chloro-3-cyclopropylquinazolin-4(3H)-one], with 27.3 mL/min/kg; and `CCc1nc(-c2c(N)ncnc2N[C@@H](C)c2nc3cccc(Cl)c3c(=O)n2C2CC2)no1` [Ex. 61, (S)-2-(1-((6-amino-5-(5-ethyl-1,2,4-oxadiazol-3-yl)pyrimidin-4-yl)amino)ethyl)-5-chloro-3-cyclopropylquinazolin-4(3H)-one], with 97.5 mL/min/kg.
Same read-out and setting: then `CC[C@H](Nc1ncnc(N)c1-c1nc(C)no1)c1nc2cccc(C)c2c(=O)n1C1CC1` [Ex. 21, (S)-2-(1-((6-amino-5-(3-methyl-1,2,4-oxadiazol-5-yl)pyrimidin-4-yl)amino)-propyl)-3-cyclopropyl-5-methylquinazolin-4(3H)-one], with 55.8 mL/min/kg.
In the case of `C[C@H](Nc1ncnc(N)c1-c1nnn(C)n1)c1nc2cccc(-c3cnn(C)c3)c2c(=O)n1C1CC1` [Ex. 75, (S)-2-(1-((6-amino-5-(2-methyl-2H-tetrazol-5-yl)pyrimidin-4-yl)amino)ethyl)-3-cyclopropyl-5-(1-methyl-1H-pyrazol-4-yl)quinazolin-4(3H)-one], the CL/F is 19.8 mL/min/kg, the AUC(0-t) was found to be 841 ng·h/mL, the half-life was 1.41 h and the Vd came out at 2.01 L/kg. Further, the bioavailability came to 72.5%.
On to `CC[C@H](Nc1ncnc(N)c1-c1nnc(C)o1)c1nc2cccc(C)c2c(=O)n1C1CC1` [Ex. 20], for which the CL/F was 77.3 mL/min/kg.
For the compound `CC[C@H](Nc1ncnc(N)c1-c1nc(C)no1)c1nc2cccc(-c3cnn(C)c3)c2c(=O)n1-c1ccccc1` [Ex. 74, (S)-2-(1-((6-amino-5-(3-methyl-1,2,4-oxadiazol-5-yl)pyrimidin-4-yl)amino)propyl)-5-(1-methyl-1H-pyrazol-4-yl)-3-phenylquinazolin-4(3H)-one], the CL/F came to 14.3 mL/min/kg, the AUC(0-t) came to 1120 ng·h/mL, the half-life is 1.56 h and the Vd worked out at 1.83 L/kg. In addition, the bioavailability turned out to be 105%.
Turning to `CC[C@H](Nc1ncnc(N)c1-c1nc(C)co1)c1nc2cccc(C)c2c(=O)n1-c1ccccc1C` (single isomer, unassigned) [Ex. 29], the CL/F worked out at 130 mL/min/kg.
Consider `CC[C@H](Nc1ncnc(N)c1-c1ccn(C)n1)c1nc2cccc(Cl)c2c(=O)n1C1CC1` [Ex. 51, (S)-2-(1-((6-amino-5-(1-methyl-1H-pyrazol-3-yl)pyrimidin-4-yl)amino)propyl)-5-chloro-3-cyclopropylquinazolin-4(3H)-one], for which the CL/F came out at 27.3 mL/min/kg.
On to `CC[C@H](Nc1ncnc(N)c1-c1ncn(C)n1)c1nc2cccc(Cl)c2c(=O)n1C1CC1` [Ex. 53, (S)-2-(1-((6-amino-5-(1-methyl-1H-1,2,4-triazol-3-yl)pyrimidin-4-yl)amino)-propyl)-5-chloro-3-cyclopropylquinazolin-4(3H)-one], for which the CL/F was determined as 38.2 mL/min/kg.
Still for that read-out and setting: then `CC[C@H](Nc1ncnc(N)c1-c1nnc(C)o1)c1nc2cccc(Cl)c2c(=O)n1C1CC1` [Ex. 2, (S)-2-(1-((6-amino-5-(5-methyl-1,3,4-oxadiazol-2-yl)pyrimidin-4-yl)amino)-propyl)-5-chloro-3-cyclopropylquinazolin-4(3H)-one], with 41.2 mL/min/kg; and `CC[C@H](Nc1ncnc(N)c1-c1nnc(C)o1)c1nc2cccc(Cl)c2c(=O)n1-c1ccccc1C` [Ex. 35, (S)-2-(1-((6-amino-5-(5-methyl-1,3,4-oxadiazol-2-yl)pyrimidin-4-yl)-amino)propyl)-5-chloro-3-(o-tolyl)quinazolin-4(3H)-one], with 53 mL/min/kg; and `CC[C@H](Nc1ncnc(N)c1-c1ncn(C)n1)c1nc2cccc(Cl)c2c(=O)n1-c1ccc(F)cc1` [Ex. 50, (S)-2-(1-((6-amino-5-(1-methyl-1H-1,2,4-triazol-3-yl)pyrimidin-4-yl)amino)propyl)-5-chloro-3-(4-fluorophenyl)quinazolin-4(3H)-one], with 86.7 mL/min/kg.
`CC[C@H](Nc1ncnc(N)c1C1=N[C@@H](C)CO1)c1nc2cccc(Cl)c2c(=O)n1C1CC1` [Ex. 5, 2-((S)-1-((6-amino-5-((S)-4-methyl-4,5-dihydrooxazol-2-yl)pyrimidin-4-yl)amino)propyl)-5-chloro-3-cyclopropylquinazolin-4(3H)-one]: the CL/F is 59.5 mL/min/kg.
